Assay: xn = mol fraction of the nth substance listed
Details: 298 K, Liquid

ClCCCCCl [1,4-dichlorobutane] + CN(C)C=O
mass density [kg/m3]
Details	x2 = 0.1003	x2 = 0.1923	x2 = 0.2994	x2 = 0.4006	x2 = 0.5022	x2 = 0.6004	x2 = 0.7029	x2 = 0.7943	x2 = 0.9006
100 kPa	1119	1105.1	1087.9	1071.2	1052.4	1034	1013.1	993.4	968.9
500 kPa	1119.3	1105.4	1088.2	1071.5	1052.7	1034.2	1013.4	993.7	969.2
1000 kPa	1119.7	1105.8	1088.6	1071.8	1053.1	1034.6	1013.8	994	969.6
1500 kPa	1120.1	1106.1	1089	1072.2	1053.5	1035	1014.1	994.3	969.8
2000 kPa	1120.4	1106.5	1089.3	1072.6	1053.8	1035.3	1014.4	994.7	970.2
2500 kPa	1120.8	1106.9	1089.7	1072.9	1054.2	1035.7	1014.7	995	970.5
3000 kPa	1121.2	1107.3	1090.1	1073.3	1054.5	1036	1015.1	995.4	970.7
3500 kPa	1121.6	1107.7	1090.4	1073.6	1054.8	1036.3	1015.4	995.7	971.1
4000 kPa	1122	1108.1	1090.8	1074	1055.2	1036.7	1015.8	996	971.4
4500 kPa	1122.3	1108.4	1091.2	1074.4	1055.5	1037	1016.1	996.4	971.8
5000 kPa	1122.7	1108.8	1091.6	1074.8	1055.9	1037.4	1016.4	996.7	972.1
5500 kPa	1123.1	1109.2	1091.9	1075.1	1056.2	1037.7	1016.8	996.9	972.3
6000 kPa	1123.4	1109.5	1092.3	1075.4	1056.6	1038.1	1017	997.3	972.6
6500 kPa	1123.8	1109.9	1092.6	1075.9	1057	1038.4	1017.5	997.6	972.9
7000 kPa	1124.2	1110.3	1093	1076.2	1057.2	1038.8	1017.8	997.9	973.3
7500 kPa	1124.6	1110.7	1093.4	1076.6	1057.6	1039.1	1018	998.3	973.6
8000 kPa	1124.9	1111	1093.7	1076.9	1057.9	1039.4	1018.4	998.5	973.9
8500 kPa	1125.2	1111.4	1094	1077.2	1058.3	1039.7	1018.7	998.9	974.2
9000 kPa	1125.6	1111.8	1094.4	1077.6	1058.7	1040.1	1019.1	999.2	974.5
9500 kPa	1126	1112.2	1094.8	1078	1059	1040.4	1019.4	999.5	974.8
10000 kPa	1126.4	1112.6	1095.2	1078.4	1059.3	1040.8	1019.7	999.9	975.2
10500 kPa	1126.8	1112.9	1095.5	1078.7	1059.7	1041.1	1020.1	1000.2	975.5
10900 kPa	1127.1	–	–	–	–	–	–	–	–
11000 kPa	–	1113.3	1095.9	1079.1	1060	1041.5	1020.4	–	975.8
11500 kPa	1127.4	1113.6	1096.2	1079.4	1060.3	1041.8	1020.7	1000.8	976.1
11900 kPa	–	1113.9	–	–	1060.6	–	–	–	–
12000 kPa	1127.8	–	1096.6	1079.8	–	1042.1	1021.1	1001.2	976.4
12500 kPa	1128.2	1114.3	1096.9	1080.1	1061	1042.4	1021.4	1001.5	976.7
12900 kPa	–	–	–	–	–	–	1021.7	–	–
13000 kPa	1128.5	1114.7	1097.3	1080.4	1061.3	1042.7	–	1001.7	976.9
13500 kPa	1128.9	1115	1097.7	1080.8	1061.6	1043.1	1022	1002.1	977.2
13900 kPa	–	1115.3	–	–	1062	–	–	–	–
14000 kPa	1129.2	–	1097.9	1081.1	–	1043.4	1022.4	1002.3	977.5
14400 kPa	–	–	–	1081.4	–	–	1022.6	–	–
14500 kPa	1129.5	1115.7	1098.2	–	1062.3	1043.7	–	1002.7	977.8
15000 kPa	1129.9	1116	1098.6	1081.8	1062.6	1044	1023	1003	978.1
15500 kPa	1130.3	1116.4	1099	1082.1	1063	1044.4	1023.2	1003.3	978.4
16000 kPa	1130.6	1116.8	1099.2	1082.5	1063.3	1044.6	1023.5	1003.5	978.7
16500 kPa	1130.9	1117.1	1099.6	1082.8	1063.6	1045	1023.8	1003.8	978.9
16900 kPa	–	1117.4	–	–	–	–	1024.1	1004.1	–
17000 kPa	1131.3	–	1100	1083.1	1063.9	1045.3	–	–	979.3
17500 kPa	1131.6	1117.8	1100.3	1083.5	1064.2	1045.6	1024.4	1004.5	979.5
17900 kPa	–	–	–	–	1064.5	–	–	–	–
18000 kPa	1132	1118.1	1100.6	1083.8	–	1045.9	1024.7	1004.9	979.8
18500 kPa	1132.3	1118.4	1100.9	1084.2	1065	1046.3	1025.1	1005.1	980
19000 kPa	1132.8	1118.8	1101.4	1084.5	1065.3	1046.6	1025.4	1005.5	980.4
19400 kPa	–	–	1101.7	–	–	–	–	1005.7	–
19500 kPa	1133.1	1119.1	–	1084.9	1065.5	1046.9	1025.7	–	980.7
20000 kPa	1133.4	1119.5	–	1085.3	1065.9	1047.2	1026.1	1006.1	981
20100 kPa	–	–	1102.2	–	–	–	–	–	–

Reference: the NIST ThermoML archive (doi:10.1021/je700339f)
